Source: patent US6403826B1, “Corrosion-inhibiting coating composition for metals” (Ciba Specialty Chemicals Corporation, priority 1996, dated 2002)

Legend:
[1] = Salt spray test DIN 50 021 SS, 168 hours, of acrylic dispersion coating (Maincote HG-54) with corrosion inhibitor; corrosion protection factor CPF; settings: salt spray 168 hours, coat thickness 50 to 55 μm; for CPF film / CPF metal: maximum 6 points, greater = better; for CPF: sum of film and metal, maximum 12 points
Protocol: (§1) In order to prepare the coating formulation (acrylic dispersion based on Maincote HG-54), components 1 to 8 (formulation without amine salt) and components 1 to 9 (formulation comprising an amine salt) are employed in the sequence stated (see Table 1).
(§2) Components 1 to 8 or 1 to 9 are dispersed using a high-speed stirrer at 3000 revolutions/minute to a degree of ground fineness or ground particulate nature of <15 μm. The outcome of dispersing the pigment paste thus obtained is assessed by determining the grindometer value (ISO 1524).The amount of the novel salts employed is based on the overall solids content of the formulation without salt (overall solids content 47%). Accordingly, an addition of, say, 1.0% of amine salt to 100 g of dispersion denotes, for example, an amount of 0.47 g. To complete the coating formulation, components 10 to 16 of Table 1 are added at a reduced stirring speed (1000 revolutions/minute) in the stated sequence. Subsequently, the pH of the formulation is checked and, if appropriate, is adjusted prior to application to a value of from 8 to 8.5 using ammonia solution (25% strength).
(§3) The coating formulations are applied to steel panels (19×10.5 cm) of the Bonder type (cold-rolled degreased steel; manufactured by Chemetall, Frankfurt am Main/Germany) in a coat thickness which after drying amounts to 50-55 μm. Drying conditions: 10 days at room temperature.
(§4) Prior to the beginning of weathering, the “coating films” undergo defined damage in the form of a parallel cut (i.e. parallel to the longest panel edge) using a Bonder cross-cut instrument (Mod. 205; manufactured and sold by Lau, 5870 Hemer/Germany). The panel edges are protected by applying an edge protector (Icosit® 255; manufactured by Inertol AG, Winterthur/Switzerland).
(§5) The samples are subsequently subjected to accelerated weathering in a salt spray test in accordance with DIN 50 021 SS for 168 hours (Table 2) or to a humidity test in accordance with ASTM D 4585-87 for 330 hours (Table 3). The assessment of the results is based on the relevant DIN standards in accordance with an evaluation key, by the indication of a corrosion protection value CPF (Corrosion Protection Factor). The CPF is an additive term composed of an assessment of the coating (film) and an assessment of visible underfilm corrosion and appearance of the metal surface, and has a maximum of 12 points. The individual maximum values are 6 points each. The greater the CPF, the better the protection against corrosion.

[2] = Subfilm migration in the wet state (cathodic delamination) along the artificial damage, DIN 53 167, after the salt spray test; settings: after salt spray 168 hours, coat thickness 50 to 55 μm, lesser = more effective
Description: as §3, §4
(§6) As additional assessment criteria, the “subfilm migration in the wet state” (cathodic delamination) along the artificial damage side is determined, after the end of the salt spray test, in accordance with DIN 53 167. […] After the end of the humidity test, the wet adhesion of the coating formulation is determined in accordance with DIN 53 151 by making a crosshatch cut followed by the tape tearoff test. According to DIN 53 151 (scale from Gt 0 to Gt 5) a crosshatch value of Gt 0 corresponds to completely intact adhesion of the coating film, whereas Gt 5 corresponds to inadequate adhesion.

[3] = Humidity test ASTM D 4585-87, 330 hours, of acrylic dispersion coating (Maincote HG-54) with corrosion inhibitor; corrosion protection factor CPF; settings: humidity test 330 hours, coat thickness 45 to 50 μm; for CPF film / CPF metal: maximum 6 points, greater = better; for CPF: sum of film and metal, maximum 12 points
Protocol: as §1, §2
[…] Drying conditions: 10 days at room temperature.
as §4, §5

[4] = Wet adhesion of the coating formulation, DIN 53 151 crosshatch cut and tape tearoff test, after the humidity test; settings: after humidity test 330 hours, scale Gt 0 (completely intact adhesion) to Gt 5 (inadequate adhesion)
Protocol: as §3, §6

[5] = 1% inhibitor on overall solids content
[6] = 2% inhibitor on overall solids content

Compound | CPF film [1, 5] | CPF metal [1, 5] | CPF ([1]; 1% inhibitor) | CPF film [1, 6] | CPF metal [1, 6] | CPF ([1]; 2% inhibitor) | Cathodic delamination (mm total) ([2]; 1% inhibitor) | Cathodic delamination (mm total) ([2]; 2% inhibitor) | CPF film [3, 5] | CPF metal [3, 5] | CPF ([3]; 1% inhibitor) | CPF film [3, 6] | CPF metal [3, 6] | CPF ([3]; 2% inhibitor) | Wet adhesion (Gt value) ([4]; 1% inhibitor) | Wet adhesion (Gt value) ([4]; 2% inhibitor)
CCCCCCCCCCCCCCCCCCN(CP(=O)(O)O)CP(=O)(O)O.CCN1CCOCC1.CCN1CCOCC1 [Example 1, n-Octadecylaminobismethylenephosphonic Acid, Salt with Two Equivalents of N-ethylmorpholine] | 6.0 | 5.0 | 11.0 | 6.0 | 5.2 | 11.2 | 28 mm | 30 mm | 4.0 | 4.0 | 8.0 | 5.0 | 4.0 | 9.0 | 0 Gt | 0 Gt
CCCCCCN(CCCCCC)CP(=O)(O)O.CCN1CCOCC1.CCN1CCOCC1 [Example 2, Dihexylaminomethylenephosphonic Acid, Salt with Two Equivalents of N-ethylmorpholine] | 4.2 | 5.2 | 9.4 |  |  |  | 14 mm |  | 4.0 | 4.0 | 8.0 |  |  |  | 0 Gt | 
CCCCCCCCN(CCCCCCCC)CP(=O)(O)O.CCN1CCOCC1.CCN1CCOCC1 [Example 3, Dioctylaminomethylenephosphonic Acid, Salt with Two Equivalents of N-ethylmorpholine] | 4.0 | 4.0 | 8.0 |  |  |  | 16 mm |  |  |  |  |  |  |  |  | 
CCCCC(CC)CN(CP(=O)(O)O)CP(=O)(O)O.CCN1CCOCC1.CCN1CCOCC1 (stereo not drawn) [Example 4, 2-Ethylhexylaminobismethylenephosphonic Acid, Salt with Two Equivalents N-ethylmorpholine] | 5.0 | 5.0 | 10.0 |  |  |  | 22 mm |  | 4.0 | 2.6 | 6.6 | 5.0 | 4.8 | 9.8 | 0 Gt | 0 Gt
CCCCCCCCCCCCCCCCN(CP(=O)(O)O)CP(=O)(O)O.CCN1CCOCC1.CCN1CCOCC1 [Example 5, n-Hexadecylaminobismethylenephosphonic Acid, Salt with Two Equivalents of N-ethylmorpholine] | 5.2 | 5.0 | 10.2 |  |  |  | 26 mm |  | 4.2 | 5.0 | 9.2 |  |  |  | 0 Gt | 
CCCCCCCCCCCCCCN(CP(=O)(O)O)CP(=O)(O)O.CCN1CCOCC1.CCN1CCOCC1 [Example 6, n-Tetradecylaminobismethylenephosphonic Acid, Salt with Two Equivalents of N-ethylmorpholine] | 5.4 | 5.0 | 10.2 |  |  |  | 18 mm |  | 4.6 | 5.0 | 9.6 | 5.2 | 4.5 | 9.7 | 0 Gt | 0 Gt
CCCCCCCCCCCCN(CP(=O)(O)O)CP(=O)(O)O.CCN1CCOCC1.CCN1CCOCC1 [Example 7, n-Dodecylaminobismethylenephosphonic Acid, Salt with Two Equivalents of N-ethylmorpholine] | 5.4 | 5.6 | 11.0 |  |  |  | 16 mm |  | 5.2 | 3.0 | 8.2 | 6.0 | 4.5 | 10.5 | 0 Gt | 0 Gt
CCCCCCCCCCN(CP(=O)(O)O)CP(=O)(O)O.CCN1CCOCC1.CCN1CCOCC1 [Example 8, n-Decylaminobismethylenephosphonic Acid, Salt with Two Equivalents of N-ethylmorpholine] | 5.2 | 5.4 | 10.6 | 5.2 | 5.2 | 10.4 | 12 mm | 10 mm | 5.2 | 4.7 | 9.9 |  |  |  | 0-1 Gt | 
CCCCCCCCN(CP(=O)(O)O)CP(=O)(O)O.CCN1CCOCC1.CCN1CCOCC1 [Example 9, n-Octylaminobismethylenephosphonic Acid, Salt with Two Equivalents of N-ethylmorpholine] | 5.6 | 5.4 | 11.0 |  |  |  | 12 mm |  | 4.4 | 4.0 | 8.4 | 4.8 | 5.4 | 10.2 | 0 Gt | 0 Gt
CCCCCCN(CP(=O)(O)O)CP(=O)(O)O.CCN1CCOCC1.CCN1CCOCC1 [Example 10, n-Hexylaminobismethylenephosphonic Acid, Salt with Two Equivalents of N-ethylmorpholine] | 4.6 | 5.4 | 10.0 |  |  |  | 24 mm |  | 4.0 | 3.8 | 7.8 | 4.4 | 6.0 | 10.4 | 0 Gt | 0 Gt
CCCCCCCCCCCCN(CP(=O)(O)O)CP(=O)(O)O.OCCN(CCO)CCO.OCCN(CCO)CCO [Example 16, n-Dodecylaminobismethylenephosphonic Acid, Salt with Two Equivalents of Triethanolamine] | 4.8 | 4.4 | 9.2 |  |  |  | 16 mm |  |  |  |  | 4.8 | 3.6 | 8.4 |  | 0 Gt
CCCCCCCCCCN(CP(=O)(O)O)CP(=O)(O)O.OCCN(CCO)CCO.OCCN(CCO)CCO [Example 17, n-Decylaminobismethylenephosphonic Acid, Salt with Two Equivalents of Triethanolamine] | 5.4 | 5.5 | 10.9 |  |  |  | 16 mm |  |  |  |  |  |  |  |  | 
